From ChEMBL document CHEMBL5728742, “Pyrrolo-pyridine derivative compound, method for preparing same, and pharmaceutical composition containing same as active ingredient for prevention or treatment of protein kinase-related diseases” (2021)

Molecular target: Dual specificity tyrosine-phosphorylation-regulated kinase 1A (Homo sapiens, UniProt Q13627)
Test: Then, DYRK1A kinase was added thereto, followed by mixing well. Each compound of Examples was added thereto by using acoustic technology (Echo550; nanoliter range). […] After reacting at room temperature for 2 hours, spotting was performed on P81 exchange paper. Upon completion of the reaction, kinase activity was detected using a filter-binding method.

SMILES: CCNc1cc(Nc2cc(F)c(C(=O)NC3CCN(C)CC3)cc2OC)nc2[nH]cc(C(F)(F)F)c12
- IC50: > 100 nM
